This passage reports IC50 results from ChEMBL document CHEMBL5108067, “Discovery of Potent OTUB1/USP8 Dual Inhibitors Targeting Proteostasis in Non-Small-Cell Lung Cancer” (J Med Chem, 2022).

As a reminder, the IC50 is the concentration that inhibits the measured activity by half. Lower therefore signals greater potency in that assay.

Assay [1] has as its target T1, Ubiquitin carboxyl-terminal hydrolase 1 (Homo sapiens, UniProt O94782).
T1 sequence (O94782 whole entry): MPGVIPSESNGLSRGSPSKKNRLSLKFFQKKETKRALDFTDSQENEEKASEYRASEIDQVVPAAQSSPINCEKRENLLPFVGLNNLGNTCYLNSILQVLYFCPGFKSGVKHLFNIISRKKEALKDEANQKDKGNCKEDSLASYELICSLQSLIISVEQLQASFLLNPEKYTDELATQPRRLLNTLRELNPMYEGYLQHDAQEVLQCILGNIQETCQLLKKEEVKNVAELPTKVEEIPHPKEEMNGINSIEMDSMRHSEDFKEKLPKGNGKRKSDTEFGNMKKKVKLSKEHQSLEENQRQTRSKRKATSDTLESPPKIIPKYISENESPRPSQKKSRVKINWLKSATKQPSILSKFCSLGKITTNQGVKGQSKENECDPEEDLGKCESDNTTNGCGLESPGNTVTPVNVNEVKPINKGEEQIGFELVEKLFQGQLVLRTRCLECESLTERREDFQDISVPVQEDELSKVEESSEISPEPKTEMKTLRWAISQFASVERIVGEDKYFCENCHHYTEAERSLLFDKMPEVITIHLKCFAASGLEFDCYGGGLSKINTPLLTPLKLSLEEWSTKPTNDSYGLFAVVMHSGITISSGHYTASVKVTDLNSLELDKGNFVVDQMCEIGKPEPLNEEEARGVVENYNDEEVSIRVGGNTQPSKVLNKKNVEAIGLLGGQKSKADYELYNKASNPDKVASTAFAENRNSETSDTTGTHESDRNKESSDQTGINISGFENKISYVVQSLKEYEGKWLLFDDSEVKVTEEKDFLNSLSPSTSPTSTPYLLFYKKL
Kind of assay: Inhibition of USP1 (unknown origin) using Ub-Rho measured after 0.5 to 3 hrs.

The test system of the next assay is NCI-H23. The experiment in a line: Antiproliferative activity against human NCI-H23 cells harboring KRAS mutant incubated for 72 hrs by MTT assay. As to conditions: NCI-H23, 72 h. The assay is classed as functional, cell-based.
The test system of another assay is NCI-H1703. The experiment in a line: Antiproliferative activity against human NCI-H1703 cells harboring wild type KRAS incubated for 72 hrs by MTT assay. The assay is classed as functional, cell-based. As to conditions: NCI-H1703, 72 h. On the technique in general: Formazan colour is commonly taken as a measure of viable cells.
Assay [2] concerns the target T2, Ubiquitin carboxyl-terminal hydrolase 36 (Homo sapiens, UniProt Q9P275).
T2 sequence (Q9P275 whole entry): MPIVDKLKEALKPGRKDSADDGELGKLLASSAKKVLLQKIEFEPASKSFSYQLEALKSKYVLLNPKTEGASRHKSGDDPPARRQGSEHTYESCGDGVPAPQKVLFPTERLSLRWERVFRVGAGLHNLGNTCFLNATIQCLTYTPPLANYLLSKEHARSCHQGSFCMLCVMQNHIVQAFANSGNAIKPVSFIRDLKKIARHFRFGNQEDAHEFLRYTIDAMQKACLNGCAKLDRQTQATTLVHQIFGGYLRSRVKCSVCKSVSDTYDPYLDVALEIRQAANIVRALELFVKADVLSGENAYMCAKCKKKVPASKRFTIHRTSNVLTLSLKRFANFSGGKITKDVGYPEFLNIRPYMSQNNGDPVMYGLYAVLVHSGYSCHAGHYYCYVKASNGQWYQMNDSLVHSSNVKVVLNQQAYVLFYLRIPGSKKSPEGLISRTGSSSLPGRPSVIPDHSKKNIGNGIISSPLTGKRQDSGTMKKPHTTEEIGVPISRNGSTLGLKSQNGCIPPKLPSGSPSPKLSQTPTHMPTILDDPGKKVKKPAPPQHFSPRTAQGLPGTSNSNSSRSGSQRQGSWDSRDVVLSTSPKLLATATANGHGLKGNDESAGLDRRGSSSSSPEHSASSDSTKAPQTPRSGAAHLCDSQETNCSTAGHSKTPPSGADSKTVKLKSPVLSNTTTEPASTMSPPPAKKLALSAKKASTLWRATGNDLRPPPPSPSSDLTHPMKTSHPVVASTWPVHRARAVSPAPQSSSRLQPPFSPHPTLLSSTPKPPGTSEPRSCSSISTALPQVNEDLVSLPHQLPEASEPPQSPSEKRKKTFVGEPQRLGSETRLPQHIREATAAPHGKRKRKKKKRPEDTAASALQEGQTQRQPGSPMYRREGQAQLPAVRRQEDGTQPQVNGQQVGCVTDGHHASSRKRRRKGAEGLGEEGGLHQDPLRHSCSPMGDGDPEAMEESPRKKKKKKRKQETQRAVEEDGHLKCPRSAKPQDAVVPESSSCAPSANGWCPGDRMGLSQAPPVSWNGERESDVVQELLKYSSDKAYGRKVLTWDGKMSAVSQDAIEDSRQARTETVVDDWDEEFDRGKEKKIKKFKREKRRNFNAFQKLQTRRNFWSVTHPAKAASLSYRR
The experiment in a line: Inhibition of USP36 (unknown origin) using Ub-Rho measured after 0.5 to 3 hrs.

Consider `CN1CC[C@@H](Oc2ccc(Cl)c(-c3nc4c(o3)C(=O)c3ccccc3C4=O)c2)C1`, for which the IC50 in assay [1] was 1900 nM; with NCI-H23 it was 266 nM; in the assay on NCI-H1703, 113 nM; in assay [2] it was more than 10000 nM.

As for `CN1CC[C@@H](Oc2ccc(Cl)c(-c3nc4c(o3)C(=O)c3ccccc3C4=O)c2F)C1`, the half-inhibitory concentration (IC50) was 2100 nM in assay [1], 423 nM in the assay on NCI-H23, 173 nM with NCI-H1703 and 7200 nM in assay [2].

Consider `CN1CC[C@@H](Oc2ccc(F)c(-c3nc4c(o3)C(=O)c3ccccc3C4=O)c2Cl)C1`, for which the IC50 in assay [1] stood at 1370 nM; with NCI-H23 it was 431 nM; in the assay with NCI-H1703, 145 nM; in assay [2], 8400 nM.

Take `O=C1c2ccccc2C(=O)c2oc(-c3cccnc3)nc21`: the IC50 in assay [1] came to 990 nM; in the assay with NCI-H23, 281 nM; with NCI-H1703, 93 nM; in assay [2], 3900 nM.
